According to the NIST ThermoML archive (doi:10.1016/j.fluid.2017.06.024):

Test: molar heat capacity at constant pressure
Conditions: 100 kPa, Liquid, DSC

CC(C)OC(C)C [diisopropyl ether]
Conditions	molar heat capacity at constant pressure [J/K/mol]
290.5 K	210.58
295.44 K	212.42
300.38 K	214.46
305.32 K	216.51
310.26 K	218.55
315.19 K	220.6
320.13 K	222.64
325.07 K	224.68
330.01 K	226.93
334.95 K	229.08
339.89 K	231.22
